In US20260159499A1, “COMPOUND AS FAK INHIBITOR AND USE THEREOF” (WIGEN BIOMEDICINE TECHNOLOGY (SHANGHAI) CO., LTD., priority 2021, published 2026):

Key:
[1] = biological target: FAK recombinant protein (Homo sapiens, UniProt Q05397); assay: Inhibitory activity against FAK enzyme; type: biochemical; conditions: TK substrate, ATP
Procedure: The compound serially diluted with DMSO and a FAK recombinant protein were mixed, and the mixture was left to stand at room temperature for 10 min. A biotin-labeled TK substrate (TK) and ATP were then added. […] After the mixture was incubated at room temperature for 1 h, the fluorescence intensity at 615 nm and 665 nm was measured. The ratio of the fluorescence intensity at 665 nm and 615 nm was calculated. The inhibition percentages and IC50 of the compounds were calculated compared to the DMSO control group.

[2] = tested on: PC3 cells; assay: PC3 cell proliferation, 2D activity detection; type: cell-based, human; conditions: Homo sapiens, PC-3; PC3, 2D, 72 h, class symbol; read-out: 2D IC50 against PC3 cells
Procedure: 2D activity detection: 1200 PC3 cells were seeded in a 96-well plate. After overnight adherence culture, the compound serially diluted was added. 72 h after addition, Cell Titer-Lumi (Beyotime C0068XL) was added to measure the ATP content in the cells. The growth of the cells was evaluated, and IC50 of the compounds against cell growth was calculated.

[3] = tested on: PC3 cells; assay: PC3 cell proliferation, 3D activity detection; type: cell-based, human; conditions: Homo sapiens, PC-3, 336 h, PC3, 3D culture, 14 days, read-out: 3D IC50 against PC3 cells
Procedure: 3D activity detection: PC3 cells were seeded in a 96-well plate at 1200 cells/well, and 3D culture was performed. 14 days after the compound serially diluted was added, the growth of the cells was determined. The inhibition percentage and IC50 of the compound were calculated compared to the DMSO control group.

Sequence of FAK recombinant protein (Q05397 whole entry, species assumed): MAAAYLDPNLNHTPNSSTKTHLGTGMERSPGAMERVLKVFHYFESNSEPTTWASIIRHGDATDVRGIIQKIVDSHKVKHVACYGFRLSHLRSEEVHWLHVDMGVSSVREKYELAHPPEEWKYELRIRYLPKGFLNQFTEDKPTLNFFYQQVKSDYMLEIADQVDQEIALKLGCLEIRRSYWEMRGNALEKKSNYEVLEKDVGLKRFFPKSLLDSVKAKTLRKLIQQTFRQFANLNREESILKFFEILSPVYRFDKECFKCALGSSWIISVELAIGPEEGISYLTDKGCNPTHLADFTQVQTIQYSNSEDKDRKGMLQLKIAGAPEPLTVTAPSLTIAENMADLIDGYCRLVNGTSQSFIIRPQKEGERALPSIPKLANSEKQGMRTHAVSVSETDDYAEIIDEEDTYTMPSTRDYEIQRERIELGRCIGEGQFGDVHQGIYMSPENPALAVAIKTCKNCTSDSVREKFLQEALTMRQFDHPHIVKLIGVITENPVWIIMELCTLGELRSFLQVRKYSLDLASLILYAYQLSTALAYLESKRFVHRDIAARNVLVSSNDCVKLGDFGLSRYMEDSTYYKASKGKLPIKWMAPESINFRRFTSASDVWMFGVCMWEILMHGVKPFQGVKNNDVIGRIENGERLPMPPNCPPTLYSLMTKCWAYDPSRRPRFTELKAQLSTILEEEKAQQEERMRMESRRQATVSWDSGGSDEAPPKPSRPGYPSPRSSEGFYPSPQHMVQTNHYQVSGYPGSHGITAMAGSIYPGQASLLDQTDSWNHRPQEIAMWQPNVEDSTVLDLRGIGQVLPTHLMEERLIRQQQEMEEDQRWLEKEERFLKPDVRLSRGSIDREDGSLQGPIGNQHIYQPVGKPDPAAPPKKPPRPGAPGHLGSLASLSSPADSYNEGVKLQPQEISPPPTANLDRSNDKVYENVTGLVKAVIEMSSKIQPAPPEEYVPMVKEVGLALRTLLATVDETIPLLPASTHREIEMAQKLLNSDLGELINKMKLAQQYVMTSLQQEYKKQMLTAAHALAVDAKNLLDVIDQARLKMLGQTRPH

| SMILES | IC50 [1] [nM] | IC50 [2] [nM] | IC50 ([3]; class symbol) [nM] | IC50 ([3]; numeric (mean where marked *)) [nM] |
| --- | --- | --- | --- | --- |
| COc1cc(C(=O)NC2CC3(CCN(C)CC3)C2)c(F)cc1Nc1ncc(C(F)(F)F)c(Oc2cccc3c2C(=O)N(C)C3C)n1 (stereo not drawn) [Compound 70, 4-((4-((1,2-dimethyl-3-oxoisoindol-4-yl)oxy)-5-(trifluoromethyl)pyrimidin-2-yl)amino)-2-fluoro-5-methoxy-N-(7-methyl-7-azaspiro[3.5]nonan-2-yl)benzamide] | < 10 | > 2000 | < 5 |  |
| COc1cc(C(=O)NC2CC3(CCN(C)CC3)C2)c(F)cc1Nc1ncc(C(F)(F)F)c(Cc2cccc3c2C(=O)N(C)C3C)n1 (stereo not drawn) [Compound 74, 4-((4-((1,2-dimethyl-3-oxoisoindol-4-yl)methyl)-5-(trifluoromethyl)pyrimidin-2-yl)amino)-2-fluoro-5-methoxy-N-(7-methyl-7-azaspiro[3.5]nonan-2-yl)benzamide] | < 10 | > 2000 | 5 to 50 |  |
| COc1cc(C(=O)NC2CC3(CCN(C)CC3)C2)c(F)cc1Nc1ncc(C(F)(F)F)c(Oc2cccc3c2C(=O)CC3)n1 [Compound 82] | < 10 | > 2000 | 5 to 50 |  |
| COc1cc(C(=O)NC2CC3(CCN(C)C3)CO2)c(F)cc1Nc1ncc(C(F)(F)F)c(Oc2ccccc2N(C)S(C)(=O)=O)n1 (stereo not drawn) [Compound 14] | < 10 | > 2000 | < 5 |  |
| COc1cc(N2CC3(CCN(C)CC3)C2)ccc1Nc1ncc(F)c(Oc2cccc3c2C(=O)N(C)C3)n1 [Compound 115] | < 10 | > 2000 |  | 67 |
| COc1cc(N2CCC3(CC2)CN(C)C3)ccc1Nc1ncc(Cl)c(Oc2cccc3c2C(=O)N(C)C3)n1 [Compound 116] | < 10 | > 2000 | < 5 |  |
| COc1cc(C(=O)NC2CCC3(CC2)CN(C)C3)ccc1Nc1ncc(C(F)(F)F)c(Oc2cccc3c2C(=O)N(C)C3C)n1 (stereo not drawn) [Compound 73] | < 10 | > 2000 | 5 to 50 |  |
| COc1cc(C(=O)NC2CC3(CCN(C)CC3)C2)c(F)cc1Nc1ncc(C(F)(F)F)c(Cc2cccc3c2C(=O)N(C)C3)n1 [Compound 49, 2-fluoro-5-methoxy-4-((4-((2-methyl-3-oxoisoindolin-4-yl)methyl)-5-(trifluoromethyl)pyrimidin-2-yl)amino)-N-(7-methyl-7-azaspiro[3.5]nonan-2-yl)benzamide] | < 10 | > 2000 | < 5 |  |
| COc1cc(N2CCC3(CCN(C)C3)CC2)ccc1Nc1ncc(C(F)(F)F)c(Oc2cccc3c2C(=O)N(C)C3)n1 [Compound 95] | < 10 | > 2000 | < 5 |  |

Other lines, results leading:

| IC50 [1] [nM] | IC50 [2] [nM] | IC50 ([3]; class symbol) [nM] | IC50 ([3]; numeric (mean where marked *)) [nM] | SMILES |
| --- | --- | --- | --- | --- |
| < 10 | > 2000 | 5 to 50 |  | COc1cc(C(=O)N2CCC3(CCN(C)C3)C2)c(F)cc1Nc1ncc(C(F)(F)F)c(Oc2cccc3c2C(=O)N(C)C3)n1 (stereo not drawn) [Compound 36] |
| < 10 | > 2000 | 5 to 50 |  | COc1cc(C(=O)NC2CCN3CCOC3C2)c(F)cc1Nc1ncc(C(F)(F)F)c(Oc2cccc3c2C(=O)N(C)C3)n1 (stereo not drawn) [Compound 30] |
| < 10 | > 2000 |  | 3.71 | COc1cc(C(=O)NC2COC3(CCN(C)CC3)C2)c(F)cc1Nc1ncc(C(F)(F)F)c(Oc2cccc3c2C(=O)N(C)C3)n1 (stereo not drawn) [Compound 23] |
| < 10 | > 2000 | < 5 |  | COc1cc(C(=O)NC2CC3(CCN(C)CC3)C2)c(Cl)cc1Nc1ncc(C(F)(F)F)c(Oc2cccc3c2C(=O)N(C)C3)n1 [Compound 43] |
| < 10 | > 2000 | < 5 |  | COc1cc(C(=O)NC2CCC3(CC2)CCN(C)C3)c(F)cc1Nc1ncc(C(F)(F)F)c(Oc2cccc3c2C(=O)N(C)C3)n1 (stereo not drawn) [Compound 25] |
| < 10 | > 2000 | 5 to 50 |  | COc1cc(C(=O)NC2CCC3(CCN(C)CC3)C2)c(F)cc1Nc1ncc(C(F)(F)F)c(Oc2cccc3c2C(=O)N(C)C3)n1 (stereo not drawn) [Compound 24] |
| < 10 | > 2000 | 5 to 50 |  | COc1cc(C(=O)NC2CCC3(CCN(C)C3)C2)c(F)cc1Nc1ncc(C(F)(F)F)c(Oc2cccc3c2C(=O)N(C)C3)n1 (stereo not drawn) [Compound 27] |
